Data: ChEMBL document CHEMBL5226286, “The application of isatin-based multicomponent-reactions in the quest for new bioactive and druglike molecules” (Eur J Med Chem, 2021)
Converted amounts (≈) assume the structure as drawn.

Tests used:
Bacillus subtilis [1] = assay: Antibacterial activity against Bacillus subtilis; format: functional
Staphylococcus aureus [2] = assay: microbe, parasite or virus in culture
Escherichia coli [3] = assay: microbe, parasite or virus in culture
Aspergillus niger = assay: Antifungal activity against Aspergillus niger assessed as zone of inhibition at 25 ug/ml; format: functional; details: read-out: DIZ
Candida metapsilosis = assay: Antifungal activity against Candida metapsilosis assessed as zone of inhibition at 25 ug/ml; format: functional; details: Lodderomyces metapsilosis, read-out: DIZ
Candida albicans [4] = assay: Antifungal activity against Candida albicans MTCC 227; format: functional
Saccharomyces cerevisiae = assay: Antifungal activity against Saccharomyces cerevisiae MTCC 170; format: functional
Acetylcholinesterase = Acetylcholinesterase (Homo sapiens, UniProt P22303); assay: Inhibition of AChE (unknown origin)
Chain of Acetylcholinesterase (P22303 whole entry): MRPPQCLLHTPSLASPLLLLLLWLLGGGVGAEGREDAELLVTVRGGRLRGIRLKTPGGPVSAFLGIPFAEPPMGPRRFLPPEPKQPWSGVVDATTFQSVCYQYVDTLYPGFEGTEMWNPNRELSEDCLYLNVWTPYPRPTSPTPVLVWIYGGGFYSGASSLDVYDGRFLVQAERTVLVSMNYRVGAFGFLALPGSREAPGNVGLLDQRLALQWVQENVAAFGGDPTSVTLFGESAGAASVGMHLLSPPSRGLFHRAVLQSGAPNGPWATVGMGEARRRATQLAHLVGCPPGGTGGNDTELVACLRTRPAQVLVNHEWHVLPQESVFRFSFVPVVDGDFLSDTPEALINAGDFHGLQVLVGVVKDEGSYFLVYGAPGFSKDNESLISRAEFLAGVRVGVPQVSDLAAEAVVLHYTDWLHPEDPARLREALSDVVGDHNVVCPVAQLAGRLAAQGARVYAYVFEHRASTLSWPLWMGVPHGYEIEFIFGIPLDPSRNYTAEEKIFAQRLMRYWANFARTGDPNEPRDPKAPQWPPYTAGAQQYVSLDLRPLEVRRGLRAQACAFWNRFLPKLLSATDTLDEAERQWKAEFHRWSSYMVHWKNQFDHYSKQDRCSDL

Cholinesterase = Cholinesterase (Homo sapiens, UniProt P06276); assay: Inhibition of BChE (unknown origin)
Chain of Cholinesterase (P06276 whole entry): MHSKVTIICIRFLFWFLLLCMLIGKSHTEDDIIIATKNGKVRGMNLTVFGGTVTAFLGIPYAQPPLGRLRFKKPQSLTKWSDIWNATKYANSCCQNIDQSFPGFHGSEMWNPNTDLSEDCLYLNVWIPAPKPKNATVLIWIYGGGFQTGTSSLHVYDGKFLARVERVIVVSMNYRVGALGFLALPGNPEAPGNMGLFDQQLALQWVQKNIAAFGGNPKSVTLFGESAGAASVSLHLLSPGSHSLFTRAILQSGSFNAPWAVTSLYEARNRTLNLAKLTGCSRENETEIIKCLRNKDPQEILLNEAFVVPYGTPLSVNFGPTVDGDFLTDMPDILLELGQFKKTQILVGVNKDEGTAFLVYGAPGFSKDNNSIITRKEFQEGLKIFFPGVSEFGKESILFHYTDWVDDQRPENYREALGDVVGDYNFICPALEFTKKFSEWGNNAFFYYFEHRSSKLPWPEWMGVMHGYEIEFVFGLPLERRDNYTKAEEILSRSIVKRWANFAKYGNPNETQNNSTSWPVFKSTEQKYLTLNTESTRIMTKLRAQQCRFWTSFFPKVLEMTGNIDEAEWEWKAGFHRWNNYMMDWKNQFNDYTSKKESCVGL

Tobacco mosaic virus [5] = assay: Antiviral activity against Tobacco mosaic virus assessed as inactivation effect relative to control; format: functional
Tobacco mosaic virus [6] = assay: Antiviral activity against Tobacco mosaic virus assessed as curative effect relative to control; format: functional
Tobacco mosaic virus [7] = assay: Antiviral activity against Tobacco mosaic virus assessed as protection effect relative to control; format: functional
PC-3 = assay: Antiproliferative activity against human PC-3 cells; format: functional, cell-based
LNCaP = assay: Antiproliferative activity against human LNCaP cells; format: functional, cell-based
A549 = assay: Anticancer activity against human A549 cells by MTT assay; format: functional, cell-based
K562 = assay: Anticancer activity against human K562 cells by MTT assay; format: functional, cell-based
HeLa [8] = assay: Cytotoxicity against human HeLa cells; format: functional, cell-based
Proteus mirabilis = assay: microbe, parasite or virus in culture; details: PTCC 1776
Description: Antimicrobial activity against Proteus mirabilis PTCC 1776 by broth disk diffusion microdilution method

[9] = system: Staphylococcus epidermidis; assay: microbe, parasite or virus in culture; details: PTCC 1435
Description: Antimicrobial activity against Staphylococcus epidermidis PTCC 1435 by broth disk diffusion microdilution method

HeLa [10] = assay: Growth inhibition of human HeLa cells at 20 micromol relative to control; format: functional; details: dose 20 µmol
HepG2 = assay: Growth inhibition of human HepG2 cells at 20 micromol relative to control; format: functional; details: dose 20 µmol
MDA-MB-231 [11] = assay: Growth inhibition of human MDA-MB-231 cells at 20 micromol relative to control; format: functional; details: dose 20 µmol
ECa-109 cell line = assay: Antiproliferative activity against human EC109 cells; format: functional, cell-based
SMMC-7721 = assay: Antiproliferative activity against human SMMC-7721 cells; format: functional, cell-based
MGC-803 = assay: Antiproliferative activity against human MGC-803 cells; format: functional, cell-based
T47D = assay: Antiproliferative activity against human T47D cells by MTT reduction assay; format: functional, cell-based
MDA-MB-231 [12] = assay: Antiproliferative activity against human MDA-MB-231 cells by MTT reduction assay; format: functional, cell-based
MDA-MB-435 = assay: Antiproliferative activity against human MDA-MB-435 cells; format: functional, cell-based
Candida albicans [13] = assay: Antifungal activity against Candida albicans; format: functional
Candida tropicalis = assay: Antifungal activity against Candida tropicalis; format: functional
Nakaseomyces glabratus = assay: Antifungal activity against Candida glabrata; format: functional
Aspergillus fumigatus [14] = assay: Antifungal activity against Aspergillus fumigatus RCMB 02568; format: functional
[15] = system: Syncephalastrum racemosum; assay: Antifungal activity against Syncephalastrum racemosum RCMB 05922; format: functional
Geotrichum candidum [16] = assay: Antifungal activity against Geotrichum candidum RCMB 05097; format: functional
Candida albicans [17] = assay: Antifungal activity against Candida albicans RCMB 05036; format: functional
Aspergillus fumigatus [18] = assay: Antifungal activity against Aspergillus fumigatus RCMB 02568 assessed as zone of inhibition; format: functional
[19] = system: Syncephalastrum racemosum; assay: Antifungal activity against Syncephalastrum racemosum RCMB 05922 assessed as zone of inhibition; format: functional
Geotrichum candidum [20] = assay: Antifungal activity against Geotrichum candidum RCMB 05097 assessed as zone of inhibition; format: functional
Candida albicans [21] = assay: Antifungal activity against Candida albicans RCMB 05036 assessed as zone of inhibition; format: functional
Leishmania major = assay: Antileishmanial activity against Leishmania major promastigotes incubated for 72 hrs by micrscopic analysis; format: functional
Salmonella sp. = assay: Antibacterial activity against Salmonella sp. NCIM 2501 by microdilution broth method; format: functional
Proteus vulgaris = assay: Antibacterial activity against Proteus vulgaris NCIM 2813 by microdilution broth method; format: functional
Pseudomonas aeruginosa = assay: Antibacterial activity against Pseudomonas aeruginosa NCIM 5029 by microdilution broth method; format: functional
Escherichia coli [22] = assay: Antibacterial activity against Escherichia coli NCIM 2931 by microdilution broth method; format: functional
Staphylococcus aureus [23] = assay: Antibacterial activity against Staphylococcus aureus NCIM5021 by microdilution broth method; format: functional
Staphylococcus aureus [24] = assay: Antibacterial activity against Staphylococcus aureus by agar well diffusion method; format: functional
Bacillus subtilis [25] = assay: Antibacterial activity against Bacillus subtilis by agar well diffusion method; format: functional
Escherichia coli [26] = assay: Antibacterial activity against Escherichia coli by agar well diffusion method; format: functional

For `Cc1nn(-c2ccccc2)c2c1C1(C(=O)Nc3ccc(Br)cc31)C1=C(CCCC1=O)O2` (stereo not given), the MIC (Bacillus subtilis [1]) was 12 µg/mL (≈ 25.2 µM), the MIC (Staphylococcus aureus [2]) was 128 µg/mL (≈ 269 µM) and the MIC (Escherichia coli [3]) was 256 µg/mL (≈ 537 µM).

Work on `CCOC1=Nc2ccc(Br)cc2/C1=C\C(=O)c1ccccc1O` yielded a zone of inhibition at 25 µg/mL (Aspergillus niger) of 11 mm and a zone of inhibition at 25 µg/mL (Candida metapsilosis) of 11 mm.

Work on `COc1ccc(-n2cc(CN3C(=O)C4(C(C#N)=C(N)OC5=C4C(=O)CCC5)c4ccccc43)nn2)cc1` (stereo not given) yielded an MIC (Candida albicans [4]) of 128 µg/mL (≈ 259 µM) and an MIC (Saccharomyces cerevisiae) of 64 µg/mL (≈ 129 µM).

`COc1cc2c(cc1OC)C(=O)[C@]1(C2)[C@H](c2ccc(C)cc2)[C@H](Cc2c[nH]c3ccccc23)NC12C(=O)Nc1ccccc12` (stereo not given in full) showed an IC50 (Acetylcholinesterase) of 14.2 µM and an IC50 (Cholinesterase) of 2.24 µM.

With `CNCC(=O)N[C@@H](CO)C(=O)N[C@H]1[C@H](O)[C@@H](O)[C@H](n2ccc(N)nc2=O)O[C@@H]1C(N)=O` [NINGNANMYCIN] the Activity (Tobacco mosaic virus [5]) was 58.8%, the Activity (Tobacco mosaic virus [6]) was 55.9% and the Activity (Tobacco mosaic virus [7]) was 57.1%.

`CC(O)(CS(=O)(=O)c1ccc(F)cc1)C(=O)Nc1ccc(C#N)c(C(F)(F)F)c1` (stereo not given) [BICALUTAMIDE] was tested, and the IC50 (PC-3) was 1.3 µM and the IC50 (LNCaP) was 1.5 µM.

Work on `CC(C)=CC(=O)[C@H]1[C@H](c2ccc(Br)cc2)CN(C)[C@]12C(=O)Nc1ccc(C)cc12` yielded an IC50 (A549) of 21.1 µM and an IC50 (K562) of 5.8 µM.

Compound `CC(C)=CC(=O)[C@H]1[C@H](c2ccc(Br)cc2)CN(C)[C@]12C(=O)Nc1ccc(Br)cc12` has an IC50 (A549) of 22.9 µM and an IC50 (K562) of 5.7 µM.

Work on `Cc1nn(-c2ccccc2)c2c1C1(C(=O)Nc3ccc([N+](=O)[O-])cc31)C1=C(CC(C)(C)CC1=O)O2` (stereo not given) yielded an MIC (Bacillus subtilis [1]) of 64 µg/mL (≈ 136 µM), an MIC (Staphylococcus aureus [2]) of 32 µg/mL (≈ 68 µM) and an MIC (Escherichia coli [3]) of 128 µg/mL (≈ 272 µM).

In the case of `CCN(CC)CCNC(=O)c1c(C)[nH]c(/C=C2\C(=O)Nc3ccc(F)cc32)c1C` [SUNITINIB], the IC50 (HeLa [8]) is reported as > 30 µM.

`COc1cccc([C@@H]2[C@H](Cc3c[nH]c4ccccc34)NC3(C(=O)Nc4ccccc43)[C@@]23Cc2cc(OC)c(OC)cc2C3=O)c1` (stereo not given in full) showed an IC50 (Acetylcholinesterase) of 2.31 µM and an IC50 (Cholinesterase) of 8.32 µM.

`CC1(C)S[C@@H]2[C@H](NC(=O)Cc3ccccc3)C(=O)N2[C@H]1C(=O)O` [PENICILLIN G] showed an MIC (Proteus mirabilis) of 16 µg/mL (≈ 47.8 µM) and an MIC [9] of 1 µg/mL (≈ 2.99 µM).

`Cc1ccc(/C=C2/CN(C)CC3=C2OC(N)=C(C#N)C32C(=O)Nc3ccccc32)cc1C` (stereo not given) was tested, and the “growth inhibition (GI)” value (HeLa [10]) was 87.1%, the “growth inhibition (GI)” value (HepG2) was 70.2% and the “growth inhibition (GI)” value (MDA-MB-231 [11]) was 64.9%.

In the case of `C[C@]12CC[C@H](O)CC1=CCC1C2CC[C@@]2(C)C1CC[C@@H]2C1=CC2(C(=O)N(Cc3ccc(Cl)c(Cl)c3)c3ccccc32)C(C#N)=C(N)N1` (stereo not given in full), the IC50 (ECa-109 cell line) is reported as 0.3 µM, the IC50 (SMMC-7721) is reported as > 128 µM and the IC50 (MGC-803) is reported as > 128 µM.

`CC/C(=C(\c1ccccc1)c1ccc(OCCN(C)C)cc1)c1ccccc1` [TAMOXIFEN] showed an IC50 (T47D) of 14.2 µM, an IC50 (MDA-MB-231 [12]) of 14.5 µM and an IC50 (MDA-MB-435) of 0.1 µM.

In the case of `CC1(C)CC(=O)C(=C2SC(N)=C(C#N)C3(S2)C(=O)Nc2ccc(Cl)cc23)C(=O)C1` (stereo not given), the MIC (Proteus mirabilis) is reported as 16 µg/mL (≈ 35.9 µM) and the MIC [9] is reported as 2 µg/mL (≈ 4.48 µM).

In the case of `C[C@@H]1[C@H](O)[C@@H](C)/C=C/C=C/C=C/C=C/C=C/C=C/C=C/[C@H](O[C@@H]2O[C@H](C)[C@@H](O)[C@H](N)[C@@H]2O)C[C@@H]2O[C@](O)(C[C@@H](O)C[C@@H](O)[C@H](O)CC[C@@H](O)C[C@@H](O)CC(=O)O[C@H]1C)C[C@H](O)[C@H]2C(=O)O` [AMPHOTERICIN B], the MIC (Candida albicans [13]) is reported as 12.5 µg/mL (≈ 13.5 µM), the MIC (Candida tropicalis) is reported as 12.5 µg/mL (≈ 13.5 µM) and the MIC (Nakaseomyces glabratus) is reported as 12.5 µg/mL (≈ 13.5 µM). For the same compound, the MIC (Candida albicans [4]) was 100 µg/mL (≈ 108 µM), the MIC (Saccharomyces cerevisiae) was 100 µg/mL (≈ 108 µM) and the MIC (Aspergillus fumigatus [14]) was 0.015 µg/mL (≈ 0.0162 µM). The MIC [15] was 1.95 µg/mL (≈ 2.11 µM), the MIC (Geotrichum candidum [16]) was 0.015 µg/mL (≈ 0.0162 µM) and the MIC (Candida albicans [17]) was 0.06 µg/mL (≈ 0.0649 µM). For the same compound, the “diameter of the inhibition zone (DIZ)” value (Aspergillus fumigatus [18]) was 23 mm, the “diameter of the inhibition zone (DIZ)” value [19] was 22.1 mm and the “diameter of the inhibition zone (DIZ)” value (Geotrichum candidum [20]) was 29 mm. For the same compound, the “diameter of the inhibition zone (DIZ)” value (Candida albicans [21]) was 26 mm and the MIC (Leishmania major) was 0.49 µM (≈ 0.453 µg/mL).

`O=C1Nc2ccccc2[C@@]1(O)[C@@]1(OCc2ccc(Cl)cc2)C(=O)Nc2ccccc21` showed an MIC (Salmonella sp.) of 0.074 µg/mL (≈ 0.176 µM), an MIC (Proteus vulgaris) of 0.149 µg/mL (≈ 0.354 µM) and an MIC (Pseudomonas aeruginosa) of 0.074 µg/mL (≈ 0.176 µM). It also gave an MIC (Escherichia coli [22]) of 0.074 µg/mL (≈ 0.176 µM) and an MIC (Staphylococcus aureus [23]) of 0.149 µg/mL (≈ 0.354 µM).

`N=C(N)c1ccc(OCCCCCOc2ccc(C(=N)N)cc2)cc1` [PENTAMIDINE] showed an MIC (Leishmania major) of 5.22 µM (≈ 1.78 µg/mL).

With `O=C1CCCC2=C1C1(C(=O)N2c2ccc(Cl)cc2)C2=C(Nc3ccc([N+](=O)[O-])cc31)c1ccccc1C2=O` (stereo not given) the MIC (Staphylococcus aureus [24]) was 32 µg/mL (≈ 61.1 µM), the MIC (Bacillus subtilis [25]) was 32 µg/mL (≈ 61.1 µM) and the MIC (Escherichia coli [26]) was 128 µg/mL (≈ 244 µM).
